Measurements reported in patent publication US7229996B2, “Rifamycin derivatives” (Cumbre Pharmaceuticals Inc., priority 2004, dated 2007).
In brackets after ≈: the same amount, converted by molar mass.

Legend:
Assay in all cases: MIC by microbroth dilution (NCCLS)
Type in all cases: cell-based
[1] = system: Staphylococcus aureus ATCC29213; details: S. aureus ATCC29213, Rif-S; Cation-Adjusted Mueller-Hinton Broth, 37° C.
[2] = system: Staphylococcus aureus ATCC29213 GyrA^S84L ParC^S80F; details: S. aureus ATCC29213 GyrA^S84L ParC^S80F, FQ-R
Description: (§1) Representative compounds were assayed for antimicrobial activity as follows: Minimum Inhibitory Concentrations (MICs) were determined by the microbroth dilution method as per NCCLS guidelines (National Committee for Clinical Laboratory Standards 2000), except that all growth incubations were conducted at 37° C. Bacterial cultures were tested in the following bacteriological media: S. aureus, S. epidermidis, and E. coli in Cation-Adjusted Mueller-Hinton Broth, S. pneumoniae in THY Broth supplemented with 1 mg/mL catalase under 5% CO2 atmosphere, S. pyogenes in THY Broth, E. faecalis in BHI Broth, H. influenzae in BHI Broth supplemented with 0.75 μL of 1 mg/mL NAD and 150 μL of 1 mg/ml hematin per 5 mL, and M. smegmatis in Middlebrook Broth plus ADC Enrichment.
(§2) S. aureus ATCC 29213 RpoB^H481Y is a rifampin-resistant strain with a mutation in RNA polymerase. […] S. aureus ATCC 29213 GyrA^S84LParC^S80F is a quinolone-resistant strain with mutations to both DNA gyrase and topoisomerase IV.

[3] = system: Staphylococcus aureus ATCC29213 RpoB^D471Y
Description: as §1, §2

[4] = system: Staphylococcus aureus ATCC29213 RpoB^H481Y
Description: as §1, §2

[5] = system: Staphylococcus epidermidis ATCC 12228; details: S. epidermidis ATCC 12228, Rif-S
[6] = system: Streptococcus pneumoniae ATCC6303; details: S. pneumoniae ATCC6303, Rif-S; THY Broth with catalase, 5% CO2
[7] = system: Streptococcus pyogenes ATCC19615; details: S. pyogenes ATCC19615, Rif-S; THY Broth
[8] = system: Enterococcus faecalis ATCC29212; details: E. faecalis ATCC29212, Rif-S; BHI Broth
[9] = system: Haemophilus influenzae ATCC10211; details: H. influenzae ATCC10211, Rif-S; BHI Broth with NAD and hematin
[10] = system: Escherichia coli ATCC25922; details: E. coli ATCC25922, Rif-S; Cation-Adjusted Mueller-Hinton Broth
[11] = Staphylococcus aureus, ATCC29213

Q: What does the source list for `CO[C@H]1/C=C/O[C@@]2(C)Oc3c(C)c(O)c4c(O)c(c(/C=N/N5CCN(C)CC5)c(O)c4c3C2=O)NC(=O)/C(C)=C\C=C\[C@H](C)[C@H](O)[C@@H](C)[C@@H](O)[C@@H](C)[C@H](OC(C)=O)[C@@H]1C` [Rifampin]?
A: Antimicrobial activity (MIC range) [1]: 0.008 µg/mL; Antimicrobial activity (MIC range) [2]: 0.008 µg/mL; Antimicrobial activity (MIC range) ([3]; S. aureus ATCC29213 RpoB^D471Y, Rif-R): 8 µg/mL; MIC [3, 11]: 8 µg/mL (≈ 9.72 µM); Antimicrobial activity (MIC range) ([4]; S. aureus ATCC29213 RpoB^H481Y, Rif-R): >64 µg/mL; MIC [4, 11]: > 64 µg/mL; Antimicrobial activity (MIC range) [5]: 0.03 µg/mL; Antimicrobial activity (MIC range) [6]: 0.061 µg/mL; Antimicrobial activity (MIC range) [7]: 0.013 µg/mL; Antimicrobial activity (MIC range) [8]: 0.98 µg/mL; Antimicrobial activity (MIC range) [9]: 0.24 µg/mL; Antimicrobial activity (MIC range) [10]: 16 µg/mL
